Experimental data reported in patent EP4810052A2, “HCRHR2 SELECTIVE POLYPEPTIDES” (Gubra A/S, priority 2023, dated 2026).
Starred links: 1 amine or outer side, 2 acyl side, 3 side chain; linkers in the order of their positions; H or OH if unused. Non-standard residues stand in square brackets, D forms with d. Residues, ends and D or L forms follow the SMILES beside them. Groups on a side chain read outwards from the residue. *: point of attachment. C20 diacid = O=C(O)CCCCCCCCCCCCCCCCCCC(=O)*; γGlu = O=C(O)[C@H](CCC(=O)[*:2])N[*:1]; NMeI = CC[C@H](C)[C@H](NC)C(=O)O; Nle = CCCC[C@H](N)C(=O)O; AEEA = NCCOCCOCC(=O)O; Aib = CC(C)(N)C(=O)O

Experiments:
[1] = Telemetry in mice (blood pressure, heart frequency); type: in vivo
Protocol: Blood pressure and heart frequency were monitored in freely moving conscious mice by radiotelemetry (PA-C10, Data Sciences). Briefly, analgesia with metamizole (100 mg / kg sc) was performed. For implantation of the telemetry transmitter, the animals were anesthetized with isoflurane with 5% induction and 2% maintenance. The neck was opened in the area of the hyoid bone up to the sternum in the median line. A subcutaneous pocket for the transmitter housing was prepared. The dextra carotid artery was then bluntly exposed and clamped. The […] was pushed caudally into the carotid artery through an incision. The catheter was fixed with a monofilament prolene thread, which also closed the incision. The vessel was also ligated cranially, and the clamp was then removed. The transmitter housing was pushed subcutaneously into a prepared skin pocket on the side opposite the catheter. Finally, the skin wound was closed. Postoperatively, an antibiotic (Ursocyclin® 10, Serumwerk Bernburg AG, Germany; 400 mg/l drinking water for 10 days) and an analgesic (Rimadyl®, 4 mg/kg sc for 3 days) were administered postoperatively.
For arterial blood pressure measurements, the animals were kept in a 12h: 12h day night cycle in a suitable room for at least one day before the first measurement. Animals were administrated s.c once daily in the morning for 7 consecutive days with either 1) Placebo, 2) SEQ ID NO: 3, 10 nmol/kg, 3) SEQ ID NO: 3, 30 nmol/kg or 4) SEQ ID NO: 3, 100 nmol/kg in a cross over design with 2 animals per group (n = 6-8) per week and with 1 week washout between treatments. The telemetric measurement took place over 24 hours.
For statistical analysis, 5 hours means were calculated starting from one hour after dosing and one hour after lights off. All data were evaluated using a 2-way ANOVA with Dunnett's test.

[2] = Acute effects on hemodynamics in anesthetized pigs; type: in vivo, Göttingen minipigs; conditions: anesthetized minipigs, ascending doses
Protocol: Göttingen minipigs were anesthetized and instrumented to continuous monitor hemodynamics during baseline measurement (0.5h), vehicle treatment (0.5h) and ascending doses of SEQ ID NO: 215 each 0.5 hours (10, 30, 100 and 300 µg/kg/min) and compared to a similar setup using Dobutamine (1, 3, 10 and 20 µg/kg/min) and vehicle (NaCl).

[3] = conscious healthy mice, s.c. once daily 7 days, 10-100 nmol/kg
[4] = mice, 10 nmol/kg, 1. dark period
[5] = mice, 10 nmol/kg, 2. dark period
[6] = mice, 10 nmol/kg, 3. dark period
[7] = mice, 10 nmol/kg, 4. dark period
[8] = mice, 10 nmol/kg, 5. dark period
[9] = mice, 10 nmol/kg, 6. dark period
[10] = mice, 10 nmol/kg, Baseline dark period
[11] = mice, 30 nmol/kg, 1. dark period
[12] = mice, 30 nmol/kg, 2. dark period
[13] = mice, 30 nmol/kg, 3. dark period
[14] = mice, 30 nmol/kg, 4. dark period
[15] = mice, 30 nmol/kg, 5. dark period
[16] = mice, 30 nmol/kg, 6. dark period
[17] = mice, 30 nmol/kg, Baseline dark period
[18] = mice, 100 nmol/kg, 1. dark period
[19] = mice, 100 nmol/kg, 2. dark period
[20] = mice, 100 nmol/kg, 3. dark period
[21] = mice, 100 nmol/kg, 4. dark period
[22] = mice, 100 nmol/kg, 5. dark period
[23] = mice, 100 nmol/kg, 6. dark period
[24] = mice, 100 nmol/kg, Baseline dark period

CC[C@H](C)[C@H](N)C(=O)N[C@H](C(=O)N[C@@H](CC(C)C)C(=O)N[C@@H](CO)C(=O)N[C@@H](CC(C)C)C(=O)N[C@@H](CC(=O)O)C(=O)N[C@H](C(=O)N1CCC[C@H]1C(=O)N[C@H](C(=O)NCC(=O)N[C@@H](CC(C)C)C(=O)N[C@@H](CC(C)C)C(=O)N[C@@H](CCC(N)=O)C(=O)N[C@H](C(=O)N[C@@H](CC(C)C)C(=O)N[C@@H](CC(C)C)C(=O)N[C@@H](CCC(=O)O)C(=O)N[C@@H](CCC(N)=O)C(=O)N[C@@H](C)C(=O)N[C@@H](CCCNC(=N)N)C(=O)N[C@@H](C)C(=O)N[C@@H](CCCNC(=N)N)C(=O)N[C@@H](C)C(=O)N[C@@H](C)C(=O)N[C@@H](CCCNC(=N)N)C(=O)N[C@@H](CCC(=O)O)C(=O)N[C@@H](CCC(N)=O)C(=O)N[C@@H](C)C(=O)N[C@@H](CCCCNC(=O)COCCOCCNC(=O)COCCOCCNC(=O)CC[C@H](NC(=O)CC[C@H](NC(=O)CCCCCCCCCCCCCCCCCCC(=O)O)C(=O)O)C(=O)O)C(=O)N[C@H](C(=O)N[C@@H](CC(N)=O)C(=O)N[C@@H](C)C(=O)N[C@@H](CCC(=O)O)C(=O)N[C@H](C(=O)N[C@@H](CC(C)C)C(=O)N[C@@H](C)C(=O)N[C@@H](CCC(=O)O)C(=O)N[C@H](C(N)=O)C(C)C)[C@@H](C)CC)[C@@H](C)O)[C@@H](C)CC)[C@@H](C)CC)C(C)C)C(C)C [SEQ ID NO: 3] (H-IVLSLDVPIGLLQILLEQARARAAREQAK([AEEA-AEEA-γGlu-γGlu-C20 diacid])TNAEILAEV-NH2)
Heart rate [1, 3]: permanent increase
mean arterial blood pressure [1, 3]: transient and dose-dependent effect
Heart rate [1, 4]: 617.82 ± 17.8 BPM
Mean arterial pressure [1, 4]: 102.19 ± 4.0 mmHg
Heart rate ([1]; mice, 10 nmol/kg, 1. dose): 590.34 ± 26.4 BPM
Mean arterial pressure ([1]; mice, 10 nmol/kg, 1. dose): 97.23 ± 3.7 mmHg
Heart rate [1, 5]: 576.21 ± 15.5 BPM
Mean arterial pressure [1, 5]: 102.50 ± 2.9 mmHg
Heart rate ([1]; mice, 10 nmol/kg, 2. dose): 526.42 ± 18.4 BPM
Mean arterial pressure ([1]; mice, 10 nmol/kg, 2. dose): 89.86 ± 2.5 mmHg
Heart rate [1, 6]: 570.38 ± 9.8 BPM
Mean arterial pressure [1, 6]: 101.92 ± 1.5 mmHg
Heart rate ([1]; mice, 10 nmol/kg, 3. dose): 517.24 ± 12.1 BPM
Mean arterial pressure ([1]; mice, 10 nmol/kg, 3. dose): 89.07 ± 1.9 mmHg
Heart rate [1, 7]: 557.65 ± 11.8 BPM
Mean arterial pressure [1, 7]: 103.17 ± 1.7 mmHg
Heart rate ([1]; mice, 10 nmol/kg, 4. dose): 521.88 ± 17.1 BPM
Mean arterial pressure ([1]; mice, 10 nmol/kg, 4. dose): 96.25 ± 1.4 mmHg
Heart rate [1, 8]: 548.23 ± 8.3 BPM
Mean arterial pressure [1, 8]: 105.59 ± 1.5 mmHg
Heart rate ([1]; mice, 10 nmol/kg, 5. dose): 515.46 ± 3.8 BPM
Mean arterial pressure ([1]; mice, 10 nmol/kg, 5. dose): 93.27 ± 1.8 mmHg
Heart rate [1, 9]: 571.18 ± 17.4 BPM
Mean arterial pressure [1, 9]: 104.54 ± 1.8 mmHg
Heart rate ([1]; mice, 10 nmol/kg, 6. dose): 538.37 ± 13.6 BPM
Mean arterial pressure ([1]; mice, 10 nmol/kg, 6. dose): 99.01 ± 3.0 mmHg
Heart rate [1, 10]: 573.24 ± 24.3 BPM
Mean arterial pressure [1, 10]: 117.13 ± 6.7 mmHg
Heart rate [1, 11]: 636.57 ± 28.2 BPM
Mean arterial pressure [1, 11]: 97.14 ± 2.8 mmHg
Heart rate ([1]; mice, 30 nmol/kg, 1. dose): 637.60 ± 39.0 BPM
Mean arterial pressure ([1]; mice, 30 nmol/kg, 1. dose): 83.81 ± 3.9 mmHg
Heart rate [1, 12]: 579.68 ± 23.9 BPM
Mean arterial pressure [1, 12]: 102.00 ± 4.4 mmHg
Heart rate ([1]; mice, 30 nmol/kg, 2. dose): 534.13 ± 15.4 BPM
Mean arterial pressure ([1]; mice, 30 nmol/kg, 2. dose): 89.68 ± 5.3 mmHg
Heart rate [1, 13]: 621.30 ± 9.5 BPM
Mean arterial pressure [1, 13]: 106.02 ± 3.9 mmHg
Heart rate ([1]; mice, 30 nmol/kg, 3. dose): 524.21 ± 17.2 BPM
Mean arterial pressure ([1]; mice, 30 nmol/kg, 3. dose): 93.98 ± 4.5 mmHg
Heart rate [1, 14]: 650.03 ± 9.0 BPM
Mean arterial pressure [1, 14]: 106.67 ± 4.8 mmHg
Heart rate ([1]; mice, 30 nmol/kg, 4. dose): 576.95 ± 21.0 BPM
Mean arterial pressure ([1]; mice, 30 nmol/kg, 4. dose): 94.91 ± 5.0 mmHg
Heart rate [1, 15]: 628.77 ± 14.9 BPM
Mean arterial pressure [1, 15]: 107.74 ± 5.7 mmHg
Heart rate ([1]; mice, 30 nmol/kg, 5. dose): 552.59 ± 12.9 BPM
Mean arterial pressure ([1]; mice, 30 nmol/kg, 5. dose): 94.31 ± 5.2 mmHg
Heart rate [1, 16]: 625.92 ± 11.6 BPM
Mean arterial pressure [1, 16]: 109.48 ± 6.3 mmHg
Heart rate ([1]; mice, 30 nmol/kg, 6. dose): 558.58 ± 15.1 BPM
Mean arterial pressure ([1]; mice, 30 nmol/kg, 6. dose): 97.05 ± 6.6 mmHg
Heart rate [1, 17]: 573.65 ± 26.2 BPM
Mean arterial pressure [1, 17]: 111.32 ± 3.0 mmHg
Heart rate [1, 18]: 593.28 ± 23.1 BPM
Mean arterial pressure [1, 18]: 86.82 ± 2.2 mmHg
Heart rate ([1]; mice, 100 nmol/kg, 1. dose): 692.31 ± 7.0 BPM
Mean arterial pressure ([1]; mice, 100 nmol/kg, 1. dose): 83.22 ± 5.6 mmHg
Heart rate [1, 19]: 517.97 ± 16.2 BPM
Mean arterial pressure [1, 19]: 98.30 ± 4.8 mmHg
Heart rate ([1]; mice, 100 nmol/kg, 2. dose): 507.39 ± 8.1 BPM
Mean arterial pressure ([1]; mice, 100 nmol/kg, 2. dose): 89.63 ± 4.9 mmHg
Heart rate [1, 20]: 591.77 ± 7.0 BPM
Mean arterial pressure [1, 20]: 101.88 ± 5.1 mmHg
Heart rate ([1]; mice, 100 nmol/kg, 3. dose): 536.49 ± 10.4 BPM
Mean arterial pressure ([1]; mice, 100 nmol/kg, 3. dose): 92.77 ± 4.1 mmHg
Heart rate [1, 21]: 606.21 ± 10.1 BPM
Mean arterial pressure [1, 21]: 103.60 ± 5.3 mmHg
Heart rate ([1]; mice, 100 nmol/kg, 4. dose): 560.41 ± 16.0 BPM
Mean arterial pressure ([1]; mice, 100 nmol/kg, 4. dose): 94.17 ± 3.4 mmHg
Heart rate [1, 22]: 619.17 ± 11.0 BPM
Mean arterial pressure [1, 22]: 103.68 ± 4.4 mmHg
Heart rate ([1]; mice, 100 nmol/kg, 5. dose): 554.35 ± 15.3 BPM
Mean arterial pressure ([1]; mice, 100 nmol/kg, 5. dose): 91.26 ± 2.0 mmHg
Heart rate [1, 23]: 612.05 ± 11.8 BPM
Mean arterial pressure [1, 23]: 103.45 ± 3.1 mmHg
Heart rate ([1]; mice, 100 nmol/kg, 6. dose): 550.11 ± 16.2 BPM
Mean arterial pressure ([1]; mice, 100 nmol/kg, 6. dose): 88.76 ± 1.3 mmHg
Heart rate [1, 24]: 581.49 ± 7.7 BPM
Mean arterial pressure [1, 24]: 108.55 ± 1.2 mmHg

CCCC[C@H](NC(=O)[C@@H](NC(=O)[C@H](CCC(=O)O)NC(=O)C(C)(C)NC(=O)[C@H](CC(N)=O)NC(=O)[C@@H](NC(=O)[C@H](CCCCNC(=O)COCCOCCNC(=O)COCCOCCNC(=O)CC[C@H](NC(=O)CC[C@H](NC(=O)CCCCCCCCCCCCCCCCCCC(=O)O)C(=O)O)C(=O)O)NC(=O)[C@H](C)NC(=O)[C@H](CCC(N)=O)NC(=O)[C@H](CCC(=O)O)NC(=O)[C@H](CCCNC(=N)N)NC(=O)[C@H](C)NC(=O)[C@H](C)NC(=O)[C@H](CCCNC(=N)N)NC(=O)[C@H](C)NC(=O)[C@H](CCCNC(=N)N)NC(=O)[C@H](C)NC(=O)[C@H](CCC(N)=O)NC(=O)[C@H](CO)NC(=O)[C@H](CC(C)C)NC(=O)[C@H](CC(C)C)NC(=O)[C@@H](NC(=O)[C@H](CCC(N)=O)NC(=O)[C@H](CC(C)C)NC(=O)[C@H](CC(C)C)NC(=O)CNC(=O)[C@@H](NC(=O)[C@@H]1CCCN1C(=O)[C@@H](NC(=O)[C@H](CC(=O)O)NC(=O)[C@H](CC(C)C)NC(=O)[C@H](CO)NC(=O)[C@H](CC(C)C)NC(=O)[C@@H](NC(=O)[C@@H](NC)[C@@H](C)CC)C(C)C)C(C)C)[C@@H](C)CC)[C@@H](C)CC)[C@@H](C)O)[C@@H](C)CC)C(=O)N[C@@H](C)C(=O)N[C@@H](CCC(=O)O)C(=O)N[C@H](C(N)=O)C(C)C [SEQ ID NO: 215] (H-[NMeI]VLSLDVPIGLLQILLSQARARAAREQAK([AEEA-AEEA-γGlu-γGlu-C20 diacid])TN[Aib]EI[Nle]AEV-NH2)
inotropic effects (contractility) ([2]; Fig. 11A): positive inotropic effects
coronary blood flow ([2]; Fig. 11B): increasing
O2 consumption (rate pressure product) ([2]; Figs. 11C and 11D): increasing
